Test results taken from article PMC12686243, “Synthesis and preclinical evaluation of FAP-targeting radiotracers for PET and optical imaging” (EJNMMI Radiopharmacy and Chemistry, 2025).

Experiments:
[1] = molecular target: T1, human recombinant dipeptidylpeptidase IV (Homo sapiens, UniProt P27487); test: fluorometric enzyme inhibition assay for DPPIV; type: biochemical
T1 construct: purchased Cayman Chemical
Method: The affinity towards DPPIV was determined using a commercially available inhibitor screening assay kit (Cayman Chemical, USA). The assay was performed according to the manufacturer’s instructions, and the data was analyzed as described above.

[2] = molecular target: T2, hFAP (vital hFAP-HT1080 cells) (Homo sapiens, UniProt Q12884); test: real-time binding (LigandTracer) to vital hFAP-HT1080 cells; conditions: fluorescent vs radioactive detection
T2 construct: expressed in transfected cells; host or cells: HT1080 (human fibrosarcoma), lentiviral transduction
T2 sequence (Q12884 1-760): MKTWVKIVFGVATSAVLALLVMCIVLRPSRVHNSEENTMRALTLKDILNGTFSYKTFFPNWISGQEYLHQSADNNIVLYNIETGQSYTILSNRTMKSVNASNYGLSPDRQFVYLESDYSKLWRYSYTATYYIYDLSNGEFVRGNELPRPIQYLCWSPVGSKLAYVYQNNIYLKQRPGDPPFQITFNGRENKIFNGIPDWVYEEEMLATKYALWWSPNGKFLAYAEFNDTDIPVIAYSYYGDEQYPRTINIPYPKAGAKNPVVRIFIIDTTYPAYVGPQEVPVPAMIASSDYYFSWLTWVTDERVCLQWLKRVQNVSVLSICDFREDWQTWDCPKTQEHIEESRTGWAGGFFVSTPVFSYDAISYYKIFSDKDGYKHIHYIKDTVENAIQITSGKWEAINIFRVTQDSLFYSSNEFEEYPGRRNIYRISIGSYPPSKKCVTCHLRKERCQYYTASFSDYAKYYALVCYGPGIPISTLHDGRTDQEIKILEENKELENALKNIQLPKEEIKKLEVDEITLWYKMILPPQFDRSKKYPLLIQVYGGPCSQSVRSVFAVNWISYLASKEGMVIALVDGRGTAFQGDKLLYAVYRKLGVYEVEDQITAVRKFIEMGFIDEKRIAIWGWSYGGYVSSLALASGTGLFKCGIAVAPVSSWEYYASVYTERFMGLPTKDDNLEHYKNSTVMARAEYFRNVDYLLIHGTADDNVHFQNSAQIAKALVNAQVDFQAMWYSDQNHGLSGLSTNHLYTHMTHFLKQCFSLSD
Method: To determine binding kinetics (association rate constant ka, dissociation rate constant kd, and thermodynamic dissociation constant KD), real-time assay systems (LigandTracer Yellow/White for radioactivity and Green with Red/NIR + and NIR + + /IR detectors for fluorescence; Ridgeview Instruments AB, Sweden) were utilized. In a 100 mm petri dish, cells or tissue sections in medium (3–4 mL total volume), are located on one side, while the radioactive or fluorescent signal is detected on the opposite, elevated side. Rotation on an inclined base in set intervals (30 s) allows continuous measurement of signal in the target (cells/tissue) against background area (no cells/tissue). Experiments were performed at room temperature, using CO2-independent medium, usually with 0.5–1% w/v bovine serum albumin, (#1ETA, Carl Roth, Germany). Association was determined through incubation with two distinct concentrations (between 1–5 and 4.5–10 nM, 60 min each, additive) for each compound. For that purpose, the same ligand preparation was typically employed for radioactive and fluorescent detection. This was followed by replacement with fresh medium and observation of dissociation for at least 2 h. Additionally, the dissociation rate constant was further investigated beyond 6 h, either using fluorescent detection or via gallium-67 (t1/2: 78.3 h). This approach provides reliable kinetic measurements in a 1:1 interaction setting, as previously shown (Onell and Andersson [2005]).
Binding data was evaluated using TraceDrawer (1.9.2, Ridgeview Instruments AB, Sweden). Traces were imported, potential spikes (> 100% sudden signal increases over previous datapoints) removed and each trace was normalized to its own baseline (= 0%) and highest value (= 100%, typically at the end of the second association phase). This allows comparing data across experiments and ultimately global fitting, without differences, e.g. of molar activity, affecting it. Typically, at least 3 individual traces per ligand, substrate and modality were recorded. Data was fitted in TraceDrawer using a 1:1 interaction model, with/without accounting for bulk effect. A 1:1 interaction is the simplest model, as it describes the binding of a ligand at a constant concentration to the target, with each one molecule of ligand binding to one molecule of target.

[3] = molecular target: T3, hFAPα, recombinant protein (Homo sapiens, UniProt Q12884); test: fluorometric enzyme inhibition assay for FAP; type: biochemical; conditions: Morrison equation for tight binding inhibitors; substrate Ala-Pro-AMC; mean ± SD
T3 construct: purchased
T3 sequence (Q12884 1-760): T2 sequence (Q12884 1-760)
Method: Affinity towards FAP was tested using a commercially available fluorometric assay. At the day of the experiment, all tested compounds were diluted in assay buffer (DPP assay buffer, BPS Bioscience, San Diego, CA, USA,) in a 1:1 dilution series, resulting in eleven concentrations, ranging from 2000 nM to 1.950 nM, equal to 200 nM to 0.195 nM per well. The substrate Ala-Pro-AMC (BPS Bioscience, concentration per well: 5 μM, Km = 244 μM (Edosada et al. [2006])) was pipetted along with the inhibitor into a 96-well plate. Subsequently, the enzyme (hFAPα, recombinant protein) was dissolved in assay buffer and added to the wells. The final concentration of DMSO per well was 0.2%. The 96-well plate was immediately loaded into a multimode plate reader (Biotek Cytation 5, Agilent, Santa Clara, CA, USA). The fluorescence intensity for each well was measured over a time course of 30 min with measurement intervals of 15 s, an excitation wavelength of 360 ± 20 nm and an emission wavelength of 450 ± 20 nm. Data (relative fluorescence units, RFU) over the total measurement time was analyzed by linear regression. The slope of the resulting graphs was analyzed over the inhibitor concentration. The enzyme inhibition constant Ki was calculated using the Morrison equation for tight binding inhibitors (Williams and Morrison [1979]). […]

[4] = system: hFAP-HT1080 and WT-HT1080 xenografts; test: in vivo fluorescence imaging of xenograft-bearing mice; parameters: species or system nude mice
Description: Female athymic NMRI-nude mice (Rj:NMRI-Foxn1nu, Janvier Labs, France or Charles River, Germany) between 8 and 20 weeks of age were used. Subsequently, the prepared cells (1.0–2.0 × 10^6 hFAP/WT-HT1080 per animal) were subcutaneously injected into the right and left thigh, respectively. Xenograft tissue for real-time binding experiments was derived from animals injected with both target-positive and negative cells, however only showing growth of one tumor entity. When approaching endpoints, mice were anesthetized and euthanized. The tumor was quickly removed, frozen in − 45 °C 2-methylbutane and stored in sealed tubes at − 80 °C.
Optical imaging was performed using a multimodal IVIS-CT (Perkin Elmer, USA). Compounds were injected [0.09 mg/kg (n = 1)/0.33 mg/kg (n = 3) for NODAGA-FAP647; 0.17 mg/kg (n = 3) for NODAGA-FAP800, diluted in 150 µL of sterile 0.9% NaCl solution] into the lateral tail vein, either directly or via catheter. Fluorescence imaging started ~ 2 min post injection for 2–3 h, with 1 min, 3–5 min and 10 min intervals, along with a white-light image. Additional scans were performed after 24 h and, if applicable, later. The fluorescence of the respective fluorophore was captured (NODAGA-FAP647: λEx/Em = 640/680 nm, NODAGA-FAP800: λEx/Em = 745/800 nm). Emitted fluorescence intensity was analyzed (Perkin Elmer, Living Image 4.7.4) in raw data images.

[5] = molecular target: T4, hFAP (hFAP-HT1080 xenograft tissue sections) (Homo sapiens, UniProt Q12884); test: real-time binding to frozen hFAP-HT1080 xenograft tissue sections; conditions: ^67Ga-labeled
T4 construct: expressed in transfected cells; host or cells: HT1080 (human fibrosarcoma), lentiviral transduction
T4 sequence (Q12884 1-760): T2 sequence (Q12884 1-760)
Method: HT1080 cells were chosen as cellular and xenograft models, due to their similarity to FAP expressing fibroblasts and its origin (fibrosarcoma). For that purpose, HT1080 wild-type cells (WT-HT1080; European Collection of Authenticated Cell Cultures, ECACC, United Kingdom) were used as control. Cells were cultured in DMEM with GlutaMax (#31966021, Gibco), supplemented with 10% v/v fetal bovine serum (#S0615 Sigma Aldrich, Germany), 1% penicillin/streptomycin (#15140–122, Gibco, USA), 1% Non-essential amino acids under normoxic (5% CO2; 37 °C) conditions. Upon reaching ~ 90% confluency, cells were passaged. Typically, cultures were discarded after ~ 20 passages. […] Prior to in vitro experiments, cells were washed, trypsinized (0.05% Trypsin–EDTA, Gibco, USA), taken up in medium and an aliquot was counted using a CASY1 cell counter (Model TT, Schaerfe System, Reutlingen, Germany). […]
To determine binding kinetics (association rate constant ka, dissociation rate constant kd, and thermodynamic dissociation constant KD), real-time assay systems (LigandTracer Yellow/White for radioactivity and Green with Red/NIR + and NIR + + /IR detectors for fluorescence; Ridgeview Instruments AB, Sweden) were utilized. In a 100 mm petri dish, cells or tissue sections in medium (3–4 mL total volume), are located on one side, while the radioactive or fluorescent signal is detected on the opposite, elevated side. […]

stability in human serum = type: in vitro ADME; conditions: 37 °C; for degradation in human serum: four-hour time point; for fraction of intact tracer: human serum, after 24 h
Method: Stability testing in human serum (Sigma Aldrich, Darmstadt, Germany) was carried out by incubation of the ^67Ga-labeled radiotracer at 37 °C. After defined time points an aliquot was withdrawn and the serum proteins precipitated, by dilution with “supersol” (20% v/v ethanol, 5% v/v 5 mM EDTA, 0.5% v/v Triton X-100, 0.1% m/v saponin in aqueous solution). After centrifugation, the supernatant was analyzed by radio-HPLC.

T1 sequence (P27487 whole entry): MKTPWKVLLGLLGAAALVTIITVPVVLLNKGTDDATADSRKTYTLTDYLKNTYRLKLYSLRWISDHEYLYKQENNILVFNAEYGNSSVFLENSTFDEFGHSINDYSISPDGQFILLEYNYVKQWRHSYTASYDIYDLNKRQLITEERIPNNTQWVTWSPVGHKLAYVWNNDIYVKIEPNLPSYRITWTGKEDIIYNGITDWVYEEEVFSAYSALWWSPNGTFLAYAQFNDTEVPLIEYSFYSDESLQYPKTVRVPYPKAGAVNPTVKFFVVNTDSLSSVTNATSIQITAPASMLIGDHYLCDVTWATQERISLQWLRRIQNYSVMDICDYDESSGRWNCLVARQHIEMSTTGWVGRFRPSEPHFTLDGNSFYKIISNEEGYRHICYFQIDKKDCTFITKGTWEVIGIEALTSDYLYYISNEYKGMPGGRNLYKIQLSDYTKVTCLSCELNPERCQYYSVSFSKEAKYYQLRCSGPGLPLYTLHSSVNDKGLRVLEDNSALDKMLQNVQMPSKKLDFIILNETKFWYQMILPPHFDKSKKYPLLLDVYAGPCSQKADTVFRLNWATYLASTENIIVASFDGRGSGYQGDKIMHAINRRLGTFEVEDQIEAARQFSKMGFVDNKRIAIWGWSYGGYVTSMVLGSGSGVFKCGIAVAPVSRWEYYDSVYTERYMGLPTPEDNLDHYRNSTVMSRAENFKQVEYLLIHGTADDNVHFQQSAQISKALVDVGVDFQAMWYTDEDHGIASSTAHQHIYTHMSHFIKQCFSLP

SMILES | IC50 [1] | faster association with fluorescent compared to radioactive detection [2] | faster dissociation with fluorescent compared to radioactive detection [2] | Ki [3] | ratio hFAP-HT1080/muscle fluorescence ([4]; 120 min post injection) | ratio hFAP/WT-HT1080 tumor fluorescence ([4]; 120 min post injection) | fluorescence in hFAP-HT1080 tumor higher than in WT-HT1080 tumor or muscle ([4]; 24 h post injection) | reduction of fluorescence signal in hFAP-HT1080 tumor ([4]; after 24 h post injection) | WT-HT1080 to muscle ratio ([4]; over the imaging period) | time to plateau of fluorescence in hFAP-HT1080 tumor ([4]; post injection) | Kd [5] | degradation in human serum (stability in human serum) | fraction of intact tracer (stability in human serum)
CN(CCCN1CCN(C(=O)[C@H](CCCCNC(=O)CC[C@H](C(=O)O)N2CCN(CC(=O)O)CCN(CC(=O)O)CC2)NC(=O)CCOCCOCCOCCOCCNC(=O)CCCCCN2/C(=C/C=C3\CCCC(/C=C/C4=[N+](CCCCS(=O)(=O)[O-])c5ccc(S(=O)(=O)O)cc5C4(C)C)=C3Oc3ccc(S(=O)(=O)O)cc3)C(C)(C)c3cc(S(=O)(=O)O)ccc32)CC1)c1ccc2nccc(C(=O)NCC(=O)N3CC(F)(F)C[C@H]3C#N)c2c1 [NODAGA-FAP800] | > 10 µM | ~ 50% | ~ 30% | 0.343 ± 0.153 nM | ~ 1.9 | ~ 2.2 | 60% | 43% | ~ 1 | ~ 20 min | – | – | –
CN(CCCN1CCN(C(=O)[C@H](CCCCNC(=O)CC[C@H](C(=O)[O-])N2CCN(CC(=O)[O-])CCN(CC(=O)[O-])CC2)NC(=O)CCOCCOCCOCCOCCNC(=O)CCCCC[N+]2=C(C=CC=CC=C3N(CCCS(=O)(=O)O)c4ccc(S(=O)(=O)O)cc4C3(C)C)C(C)(CCCS(=O)(=O)O)c3cc(S(=O)(=O)[O-])ccc32)CC1)c1ccc2nccc(C(=O)NCC(=O)N3CC(F)(F)C[C@H]3C#N)c2c1.[67Ga+3] (stereo partly shown) [[^67Ga]Ga-NODAGA-FAP647] | – | – | – | – | – | – | – | – | – | – | 0.025 nM | no degradation | 56%
CN(CCCN1CCN(C(=O)[C@H](CCCCNC(=O)CC[C@H](C(=O)[O-])N2CCN(CC(=O)[O-])CCN(CC(=O)[O-])CC2)NC(=O)CCOCCOCCOCCOCCNC(=O)CCCCCN2C(=CC=C3CCCC(C=CC4=[N+](CCCCS(=O)(=O)[O-])c5ccc(S(=O)(=O)O)cc5C4(C)C)=C3Oc3ccc(S(=O)(=O)O)cc3)C(C)(C)c3cc(S(=O)(=O)O)ccc32)CC1)c1ccc2nccc(C(=O)NCC(=O)N3CC(F)(F)C[C@H]3C#N)c2c1.[67Ga+3] [[^67Ga]Ga-NODAGA-FAP800] | – | – | – | – | – | – | – | – | – | – | 0.018 nM | no degradation | 22%
